Results taken from US20160159789A1, “SUBSTITUTED PYRAZOLOPYRIDINES” (BAYER PHARMA AKTIENGESELLSCHAFT, priority 2013, published 2016).

Biological target: T1, human full-length MKNK1 (Homo sapiens, UniProt Q9BUB5, T385D)
T1 construct: purchased Carna Biosciences 02-145; host or cells: insect cells (baculovirus expression system)
Assay: MKNK1 kinase high ATP assay (TR-FRET)
Format: biochemical
Details: high ATP (2 mM final), 15 min preincubation with enzyme, GST-MKNK1 (T344D)
Outline: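 GST-tagged full-length human MKNK1 from insect cells, preincubated 15 min with compound at 22° C in HEPES pH 7.5/MgCl2/DTT buffer, then reacted 30 min with 2 mM ATP and 0.06 μM biotinylated peptide (final). Phosphopeptide detected by TR-FRET (anti-pS6 pSer236/Eu-ProteinG, streptavidin-XL665), 665/620 ratio normalised to no-enzyme and no-inhibitor controls.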

T1 sequence (Q9BUB5 1-424 isoform Q9BUB5-2 T344D): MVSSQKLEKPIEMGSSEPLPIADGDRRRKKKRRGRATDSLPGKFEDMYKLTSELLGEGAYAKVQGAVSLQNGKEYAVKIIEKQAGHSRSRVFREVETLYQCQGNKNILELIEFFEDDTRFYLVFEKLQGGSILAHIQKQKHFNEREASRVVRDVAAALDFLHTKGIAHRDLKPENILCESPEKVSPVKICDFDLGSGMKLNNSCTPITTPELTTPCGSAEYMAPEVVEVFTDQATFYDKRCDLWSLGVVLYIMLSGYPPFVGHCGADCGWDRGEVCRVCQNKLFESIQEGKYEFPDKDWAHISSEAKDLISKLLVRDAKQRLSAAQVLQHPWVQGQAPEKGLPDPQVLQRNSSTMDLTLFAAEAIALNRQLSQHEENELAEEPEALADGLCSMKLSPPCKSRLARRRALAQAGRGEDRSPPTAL

IC50 [µM] | SMILES
0.0062 | CN(CCC(F)(F)F)C(=O)[C@H]1CCc2c(sc3ncnc(Nc4cc5cn[nH]c5cn4)c23)C1 [Example 48, (7S)—N-Methyl-4-(1H-pyrazolo[3,4-c]pyridin-5-ylamino)-N-(3,3,3-trifluoropropyl)-5,6,7,8-tetrahydro[1]benzothieno[2,3-d]pyrimidine-7-carboxamide]
0.0081 | COCCN(CCOC)C(=O)[C@H]1CCc2c(sc3ncnc(Nc4cc5cn[nH]c5cn4)c23)C1 [Example 56, (7S)—N, N-Bis(2-methoxyethyl)-4-(1H-pyrazolo[3,4-c]pyridin-5-ylamino)-5,6,7,8-tetrahydro[1]benzothieno[2,3-d]pyrimidine-7-carboxamide]
0.0054 | CN(C)CCNC(=O)c1cc2c(Nc3cc4cn[nH]c4cn3)ncnc2[nH]1 [Example 22, N-[2-(Dimethylamino)ethyl]-4-(1H-pyrazolo[3,4-c]pyridin-5-ylamino)-7H-pyrrolo[2,3-d]pyrimidine-6-carboxamide]
0.049 | CN1CCN(C(=O)C2CCc3[nH]c4ncnc(Nc5cnc6[nH]ncc6c5)c4c3C2)CC1 (racemic) [Example 32, (RS)-(4-Methylpiperazin-1-yl)[4-(1H-pyrazolo[3,4-b]pyridin-5-ylamino)-6,7,8,9-tetrahydro-5H-pyrimido[4,5-b]indol-6-yl]methanone]
0.0529 | FC(F)(F)c1c[nH]c2ncnc(Nc3cc4cn[nH]c4cn3)c12 [Example 16, N-[5-(Trifluoromethyl)-7H-pyrrolo[2,3-d]pyrimidin-4-yl]-1H-pyrazolo[3,4-c]pyridin-5-amine]
0.0591 | CN(C)C(=O)C1CCc2[nH]c3ncnc(Nc4cc5cn[nH]c5cn4)c3c2C1 (racemic) [Example 31, (RS)—N,N-Dimethyl-4-(1H-pyrazolo[3,4-c]pyridin-5-ylamino)-6,7,8,9-tetrahydro-5H-pyrimido[4,5-b]indole-6-carboxamide]
0.15 | COc1nc2[nH]ncc2cc1Nc1ncnc2sc(C(=O)N3CCCCC3)nc12 [Example 133, {7-[(6-Methoxy-1H-pyrazolo[3,4-b]pyridin-5-yl)amino][1,3]thiazolo[5,4-d]pyrimidin-2-yl}(piperidin-1-yl)methanone]
0.0287 | C[C@H]1COCCN1C(=O)[C@H]1CCc2c(sc3ncnc(Nc4cnc5[nH]ncc5c4)c23)C1 [Example 104, [(3S)-3-Methylmorpholin-4-yl][(7S)-4-(1H-pyrazolo[3,4-b]pyridin-5-ylamino)-5,6,7,8-tetrahydro[1]benzothieno[2,3-d]pyrimidin-7-yl]methanone]
0.0066 | CCOC(=O)c1cc2c(Nc3cc4cn[nH]c4cn3)ncnc2[nH]1 [Example 10, Ethyl 4-(1H-pyrazolo[3,4-c]pyridin-5-ylamino)-7H-pyrrolo[2,3-d]pyrimidine-6-carboxylate]
0.0067 | COc1nc2[nH]ncc2cc1Nc1ncnc2[nH]c(C(=O)N(C)CCCN(C)C)c(Br)c12 [Example 131, 5-Bromo-N-[3-(dimethylamino)propyl]-4-[(6-methoxy-1H-pyrazolo[3,4-b]pyridin-5-yl)amino]-N-methyl-7H-pyrrolo[2,3-d]pyrimidine-6-carboxamide]
0.114 | COc1nc2[nH]ncc2cc1Nc1ncnc2sc(C(=O)N(C)CCC(=O)N(C)C)nc12 [Example 138, N-[3-(Dimethylamino)-3-oxopropyl]-7-[(6-methoxy-1H-pyrazolo[3,4-b]pyridin-5-yl)amino]-N-methyl[1,3]thiazolo[5,4-d]pyrimidine-2-carboxamide]
0.171 | O=C(c1nc2c(Nc3cnc4[nH]ncc4c3)ncnc2s1)N1CCCCC1 [Example 126, Piperidin-1-yl[7-(1H-pyrazolo[3,4-b]pyridin-5-ylamino)[1,3]thiazolo[5,4-d]pyrimidin-2-yl]methanone]
0.0081 | CN(C)CCCNC(=O)c1[nH]c2ncnc(Nc3cc4cn[nH]c4cn3)c2c1Br [Example 118, 5-Bromo-N-[3-(dimethylamino)propyl]-4-(1H-pyrazolo[3,4-c]pyridin-5-ylamino)-7H-pyrrolo[2,3-d]pyrimidine-6-carboxamide]
0.0008 | COc1nc2[nH]ncc2cc1Nc1ncnc2sc3c(c12)CC[C@H](C(=O)N1C[C@@H](C)O[C@@H](C)C1)C3 [Example 36, [(2R,6S)-2,6-Dimethylmorpholin-4-yl]{(7S)-4-[(6-methoxy-1H-pyrazolo[3,4-b]pyridin-5-yl)amino]-5,6,7,8-tetrahydro[1]benzothieno[2,3-d]pyrimidin-7-yl}methanone]
0.0677 | CN(C)CCCN(C)C(=O)c1[nH]c2ncnc(Nc3cc4cn[nH]c4cn3)c2c1Br [Example 119, 5-Bromo-N-[3-(dimethylamino)propyl]-N-methyl-4-(1H-pyrazolo[3,4-c]pyridin-5-ylamino)-7H-pyrrolo[2,3-d]pyrimidine-6-carboxamide]
0.0659 | CN(C)CCNC(=O)c1[nH]c2ncnc(Nc3cnc4[nH]ncc4c3)c2c1Br [Example 124, 5-Bromo-N-[2-(dimethylamino)ethyl]-4-(1H-pyrazolo[3,4-b]pyridin-5-ylamino)-7H-pyrrolo[2,3-d]pyrimidine-6-carboxamide]
0.0259 | Cc1c[nH]c2ncnc(Nc3cnc4[nH]ncc4c3)c12 [Example 3, N-(5-Methyl-7H-pyrrolo[2,3-d]pyrimidin-4-yl)-1H-pyrazolo[3,4-b]pyridin-5-amine]
0.0238 | c1nc(Nc2cc3cn[nH]c3cn2)c2cc[nH]c2n1 [Example 2, N-(7H-Pyrrolo[2,3-d]pyrimidin-4-yl)-1H-pyrazolo[3,4-c]pyridin-5-amine]
0.0022 | COc1nc2[nH]ncc2cc1Nc1ncnc2sc3c(c12)CC[C@H](C(=O)N1CCC1)C3 [Example 35, Azetidin-1-yl{(7S)-4-[(6-methoxy-1H-pyrazolo[3,4-b]pyridin-5-yl)amino]-5,6,7,8-tetrahydro[1]benzothieno[2,3-d]pyrimidin-7-yl}methanone]
0.0507 | CN(C)C(=O)C1CCc2[nH]c3ncnc(Nc4cnc5[nH]ncc5c4)c3c2C1 (racemic) [Example 30, (RS)—N,N-Dimethyl-4-(1H-pyrazolo[3,4-b]pyridin-5-ylamino)-6,7,8,9-tetrahydro-5H-pyrimido[4,5-b]indole-6-carboxamide]
0.0032 | N#CC1CN(C(=O)[C@H]2CCc3c(sc4ncnc(Nc5cc6cn[nH]c6cn5)c34)C2)C1 [Example 82, 1-{[(7S)-4-(1H-Pyrazolo[3,4-c]pyridin-5-ylamino)-5,6,7,8-tetrahydro[1]benzothieno[2,3-d]pyrimidin-7-yl]carbonyl}azetidine-3-carbonitrile]
0.0042 | O=C(c1cc2c(Nc3cc4cn[nH]c4cn3)ncnc2[nH]1)N1CCOCC1 [Example 21, Morpholin-4-yl[4-(1H-pyrazolo[3,4-c]pyridin-5-ylamino)-7H-pyrrolo[2,3-d]pyrimidin-6-yl]methanone]
0.0078 | O=C(c1cc2c(Nc3cc4cn[nH]c4cn3)ncnc2[nH]1)N1CCCCC1 [Example 20, Piperidin-1-yl[4-(1H-pyrazolo[3,4-c]pyridin-5-ylamino)-7H-pyrrolo[2,3-d]pyrimidin-6-yl]methanone]
0.0204 | CN1CCN(C(=O)[C@H]2CCc3c(sc4ncnc(Nc5cnc6[nH]ncc6c5)c34)C2)CC1 [Example 106, (4-Methylpiperazin-1-yl)[(7S)-4-(1H-pyrazolo[3,4-b]pyridin-5-ylamino)-5,6,7,8-tetrahydro[1]benzothieno[2,3-d]pyrimidin-7-yl]methanone]
